Assay results from US12569448B2, “Membrane-based two component therapeutic gas release system for oral administration” (Julius-Maximilians-Universitaet Wuerzburg, priority 2019, dated 2026).

Test: CO release rates from free CORM and OCORS systems
Format: physicochemical
Protocol: This example illustrates the influence of the wall thickness of the silicone membrane on the release rate of the therapeutic gas.
The trigger compounds FeCl3 and Na2SO3 were used in aqueous solution and in molar excess amounts relative to the CORM.
In Table 1, Cmax describes the highest value measured for the therapeutic gas concentration. Tmax is the time, at which this value was measured. 090% describes 90% of Cmax, and T90% is the time point, at which 90% of Cmax were released. For the free metal carbonyl, a different release vessel was used than for the CO releasing systems, and therefore, the absolute values for Cmax differ.

[1] = trigger in aqueous solution in molar excess

SMILES: [C-]#[N+]CC(=O)O.[C-]#[N+]CC(=O)O.[C-]#[N+]CC(=O)O.[C-]#[O+].[C-]#[O+].[C-]#[O+].[Mo] [Entry 1, Mo(CO)3(CNCH2CO2H)3]
- C90% (90% of Cmax) (free carbonyl measured in a different release vessel): 576.7 ppm
- T90% (time point at which 90% of Cmax were released) [1]: 17 min
- Tmax (time at which Cmax was measured) [1]: 44 min
- Cmax (highest value measured for the therapeutic gas concentration) (trigger in aqueous solution in molar excess, free carbonyl measured in a different release vessel than the OCORS systems): 640.8 ppm
